One assay concerns HEK293 cells. The experiment in a line: HEK293 cell survival assay (resazurin). The conditions noted are these: Homo sapiens; HEK293, 24 h incubation. The format is cell-based. As to the method: Trypanosome and HEK293 Cell Survival Assays […]
(§1) 1-5 in human embryonic kidney (HEK293) was determined with a resazurin assay, which is based on the reduction of resazurin to fluorescent resorufin by living cells.6 HEK293 cells were maintained in DMEM high glucose supplemented with 10% FBS, 1% penicillin/streptomycin and 1% L-glutamine at 37 °C and 5% CO2. For the toxicity screen, 40000 cells per well were seeded in a 48 well plate (400 µL medium/well) and incubated at 37 °C for 24 hours before treatment with inhibitors 1-5. Cells were treated with 0.1 µM, 0.3 µM, 0.7 µM, 1 µM, 3 µM, 7 µM, 10 µM, 30 µM, 70 µM and 100 µM of the respective inhibitor, DMSO treatment served as negative control. The overall DMSO concentration was kept at 1 vol.% DMSO per well. After 24 hours of treatment, the medium was exchanged with a medium/resazurin mixture (0.015 mg/mL resazurin per well) and the cells were incubated for 3 h at 37 °C before transferring 100 µl medium from each well into a black opaque-walled 96-well plate. Fluorescence was directly measured using a CLARIOstar Plus reader (BMG Labtech GmbH, Ortenberg, Germany) with a 545-20 nm excitation / 600-40 nm emission filter. Each experiment was done in biological quadruplets and cell viability was analyzed in comparison to the DMSO control by plotting relative fluorescence units (RFU) against inhibitor concentration (Prism, Graphpad). A fifty percent decrease in relative fluorescence indicated the compound concentration where half of the HEK293 cells had died, which […]
(§2) In Vitro Tpx Activity Assay and Inactivation Kinetics
(§3) To reconstitute the peroxide clearance cascade (PCC), its components (at final concentrations of 360 µM NADPH, 0.1 U/mL TR, 110 µM TS2, 5 µM Tpx, 180 nM Px, 100 µM H2O2) were mixed in a total volume of 200 µL in a 10 mm quartz cuvette. First, 15 µL NADPH (4.8 mM in TR buffer (40 mM HEPES pH 7.5, 1 mM Na-EDTA), 10 µL TR (2 U/mL in TR buffer), 10 µL TS2 (2.2 mM in sterile filtered, deionized
Background: Resazurin is reduced to fluorescent resorufin, in cell work by metabolically active cells.

The subject of assay [1] is T1, Tpx.
T1 construct: with residue G1 and end with N144; GAMG (TEV-cleavage scar that replaces Met1); Trx-His6 (thioredoxin fusion with His6 tag) (N, cleaved yes); made in house; host or cells: E. coli BL21-Gold(DE3)
Description: In vitro Tpx activity assay: reconstituted peroxide clearance cascade, NADPH consumption followed photometrically. The format is biochemical, Trypanosoma brucei. Particulars: for second-order rate constant k2nd of irreversible Tpx inhibition: 5 µM Tpx, 25 °C, slope of kobs vs inhibitor concentration; for speed of Tpx inactivation: Tpx-equimolar concentrations (5 µM).

Assay [2] has as its system T. brucei brucei 449 Lister 427 parasites. Description: Trypanosome cell survival assay (ATPlite luminescence). The class given is cell-based, Trypanosoma brucei brucei. Particulars: for Selectivity index (24 h), EC50 HEK293 cells divided by EC50 T. brucei: HEK293 vs T. brucei brucei 449, 24 h; for EC50: Trypanosoma brucei. As to the method: Trypanosome and HEK293 Cell Survival Assays
Half maximal effective concentration (EC50) values of compounds 1- 5 against T. brucei brucei 449 Lister 427 parasites were determined with an ATPlite Luminescence assay as described previously.4,5 The EC50 was defined as the compound concentration at which a fifty percent decrease in relative […]
as §1, §2, §3
On the technique in general: In ATP-based viability assays light output follows the ATP content of the culture.

Assay [3] concerns T1, Tpx. Description: SEC-MALS of Tpx/inhibitor complexes. The format is binding, Trypanosoma brucei. Particulars: for SEC-MALS Mw of Tpx/inhibitor complex: 100 µM analyte, value ± measurement error. On the procedure: Size Exclusion Chromatography Coupled To Multi-Angle Light Scattering (SEC-MALS) To determine the oligomeric state of Tpx/inhibitor complexes by SEC-MALS, 100 µM of purified Tpx/inhibitor complexes were applied to a SEC column (Superdex75 10/300, GE Healthcare) in Tpx buffer (25 mM NaPi pH 7.5, 150 mM NaCl) at a flow rate of 0.5 ml/min at room temperature. The molecular weights of the eluting proteins were measured using a Dawn Heleos 8+ light scattering detector and an Optilab T-rEX refractive index detector (Wyatt Technologies). Data were analyzed with […]
Background: SEC sorts molecules by how far they enter the pores of the column.

A further assay addresses T2, Tpx WT (Trypanosoma brucei brucei, UniProt O77404).
T2 construct: with residue G1 and end with N144; GAMG (TEV-cleavage scar that replaces Met1); Trx-His6 (thioredoxin fusion with His6 tag) (N, cleaved yes); made in house; host or cells: E. coli BL21-Gold(DE3)
T2 sequence (O77404 with tags, fused parts or gaps limits assumed): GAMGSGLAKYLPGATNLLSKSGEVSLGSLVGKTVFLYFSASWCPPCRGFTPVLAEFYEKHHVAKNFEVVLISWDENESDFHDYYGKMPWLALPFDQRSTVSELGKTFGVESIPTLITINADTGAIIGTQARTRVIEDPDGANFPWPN
The experiment in a line: Dilution ITC of covalent Tpx/inhibitor complexes (dimer dissociation). The conditions noted are these: according to dimer KD. The class given is binding. As to the method:
Isothermal Titration Calorimetry (ITC)
Dissociation coefficients (K D) of dimeric Tpx/inhibitor complexes were determined via dilution ITC following our previously established protocol. 4 Purified complexes in Tpx buffer were titrated to Tpx buffer, and the heat signals of each injection was recorded. To observe dimer dissociation, measurements were conducted with 78 µM (Tpx/para-CFT), 122 µM (Tpx/meta-CFT), 277 µM (Tpx/ortho-CFT), 821 µM (Tpx/CtFT), and 176 µM (Tpx/CPT). A MicroCal PEAQ-ITC Automated […]
1, 3 and 5. After the initial wait time of 2 min, 19 serial injections of 2 μL with a spacing of 3 min where performed. The reference power was set to 11 μcal sec-1 and stirring speed to 750 rpm. A MicroCal PEAQ-ITC (Malvern Panalytical) with the same experimental setup was used to determine the KD value of covalent Tpx WT complexes with meta-CFT (2, 10 injections), and CtFT (4, 20 injections). Each titration was performed in a technical triplicate, and controls included water to water and unmodified Tpx to buffer titrations. Transferability between instruments was checked by repeating the Tpx/para -CFT […]
titration. […]

Another assay has as its target T3, Tryparedoxin (Trypanosoma brucei, UniProt O77404).
T3 chain: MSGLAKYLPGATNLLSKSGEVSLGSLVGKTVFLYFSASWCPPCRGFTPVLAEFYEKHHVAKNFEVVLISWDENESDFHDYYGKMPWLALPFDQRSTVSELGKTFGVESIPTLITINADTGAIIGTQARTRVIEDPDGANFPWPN
Description: dilution ITC.

Where [4] appears, read: bloodstream form T. brucei brucei 449, 24 h incubation, read-out: EC50 (24 h).
Where [5] appears, read: bloodstream form T. brucei brucei 449, 48 h incubation, read-out: EC50 (48 h).

Read-outs that look alike come from different tables or passages of the source.

`O=c1[nH]c(CCl)nc2scc(-c3ccc(C(F)(F)F)cc3)c12` [CtFT, 2-(chloromethyl)-5-(4-(trifluoromethyl)phenyl)thieno[2,3-d]pyrimidin-4(3H)-one]: the EC50 (usually the concentration giving half of the maximal effect) with HEK293 cells turned out to be 3900 ± 300 nM; in assay [2] (setting [4]) it was 2200 ± 600 nM; in assay [2] (setting [5]), 2500 ± 600 nM. The “second-order rate constant k2nd of irreversible Tpx inhibition” value with Tpx [1] is 1870 ± 17 M⁻¹ s⁻¹. Moreover, the “speed of Tpx inactivation” value in the assay on Tpx [1] was “fastest”. In assay [2], the “Selectivity index (24 h), EC50 HEK293 cells divided by EC50 T. brucei” value was 1.8 ± 0.5. For the same molecule, the “oligomeric state of inhibitor-bound Tpx by SEC-MALS” value with Tpx [3] (100 µM analyte concentration) is listed as “remained monomeric”. In addition, in the assay with Tpx [3], the “SEC-MALS Mw of Tpx/inhibitor complex” value amounted to 16.6 ± 0.7 kDa.

For `O=c1[nH]c(CCl)nc2scc(-c3ccc(F)cc3)c12` [para-CFT, 2-(chloromethyl)-5-(4-fluorophenyl)-thieno[2,3-d]pyrimidin-4(3H)-one], the EC50 in the assay with HEK293 cells came out at 3900 ± 400 nM; in assay [2] (setting [4]), 1300 ± 300 nM; in assay [2] (setting [5]), 1500 ± 300 nM. The “portion of Tpx WT/inhibitor complex dimeric” value on Tpx WT (100 µM analyte) is listed as 85%. Besides, in assay [2], the “Selectivity index (24 h), EC50 HEK293 cells divided by EC50 T. brucei” value is reported as 3.0 ± 0.8. Further, the “SEC-MALS Mw of Tpx/inhibitor complex” value in the assay on Tpx [3] is on record as 21.3 ± 1.1 kDa.

`O=c1[nH]c(CCl)nc2scc(-c3ccccc3F)c12` [ortho-CFT, 2-(chloromethyl)-5-(2-fluorophenyl)thieno[2,3-d]-pyrimidin-4(3H)-one]: the figures for the EC50 (in the assay on HEK293 cells; in assay [2] (setting [4]); in assay [2] (setting [5])) were 5000 ± 600 nM, 1000 ± 300 nM and 800 ± 300 nM, respectively. The “speed of Tpx inactivation” value in the assay on Tpx [1] is reported as “fastest”. Moreover, the “portion of Tpx WT/inhibitor complex dimeric” value on Tpx WT (750 µM analyte) came out at 87%. Moreover, the “Selectivity index (24 h), EC50 HEK293 cells divided by EC50 T. brucei” value in assay [2] was found to be 5.0 ± 1.6. In addition, the “SEC-MALS Mw of Tpx/inhibitor complex” value in the assay with Tpx [3] is on record as 17.5 ± 0.9 kDa.

Consider `O=c1[nH]c(CCl)nc2scc(-c3ccccc3)c12` [CPT, 2-(chloromethyl)-5-phenylthieno[2,3-d]pyrimidin-4(3H)-one], for which the 50% effective concentration (EC50) in the assay with HEK293 cells is 4900 ± 600 nM; in assay [2] (setting [4]) it was 600 ± 300 nM; in assay [2] (setting [5]), 1400 ± 400 nM. Also, in assay [2], the “Selectivity index (24 h), EC50 HEK293 cells divided by EC50 T. brucei” value is recorded as 8.2 ± 4.2. Also, the “SEC-MALS Mw of Tpx/inhibitor complex” value with Tpx [3] worked out at 19.5 ± 0.6 kDa.

In the case of `O=c1[nH]c(CCl)nc2scc(-c3cccc(F)c3)c12` [meta-CFT, 2-(chloromethyl)-5-(3-fluorophenyl)thieno[2,3-d]pyrimidin-4(3H)-one], the concentration for a half-maximal effect (EC50) in the assay on HEK293 cells was determined as 6500 ± 500 nM; in assay [2] (setting [4]), 1300 ± 400 nM; in assay [2] (setting [5]), 1100 ± 500 nM. In the assay with Tpx [1], the “second-order rate constant k2nd of irreversible Tpx inhibition” value came to 933 ± 17 M⁻¹ s⁻¹. Further, in the assay with Tpx [1], the “speed of Tpx inactivation” value is on record as “slowest”. Besides, the “Selectivity index (24 h), EC50 HEK293 cells divided by EC50 T. brucei” value in assay [2] worked out at 5.0 ± 1.6. The “SEC-MALS Mw of Tpx/inhibitor complex” value in the assay with Tpx [3] was found to be 23.6 ± 0.9 kDa.

B1: Tryparedoxin (protein)
chain: MSGLAKYLPGATNLLSKSGEVSLGSLVGKTVFLYFSASWCPPCRGFTPVLAEFYEKHHVAKNFEVVLISWDENESDFHDYYGKMPWLALPFDQRSTVSELGKTFGVESIPTLITINADTGAIIGTQARTRVIEDPDGANFPWPN
modifications: meta-CFT covalently bound at C40
As for B1, in the assay with Tryparedoxin, the Kd – broadly, the free concentration of one partner at which half of the binding sites on the other are occupied at equilibrium, for simple one-to-one binding – worked out at 3700 nM.

B2: Tryparedoxin (protein)
chain: MSGLAKYLPGATNLLSKSGEVSLGSLVGKTVFLYFSASWCPPCRGFTPVLAEFYEKHHVAKNFEVVLISWDENESDFHDYYGKMPWLALPFDQRSTVSELGKTFGVESIPTLITINADTGAIIGTQARTRVIEDPDGANFPWPN
modifications: CtFT covalently bound at C40
In turn, B2 came in with a Kd in the assay with Tryparedoxin of 410000 nM. Against the preceding molecule, the Kd is about 110-fold higher.

(Values after article PMC13625682, “Inhibitor fluorination pattern modulates protein surface dynamics and chemically induced dimerization” (Chemical Science, 2026).)
